Experimental data as given in patent EP1140026B1, “BIODEGRADBLE POLYMER ENCAPSULATED SEROTONIN RECEPTOR ANTAGONIST AND METHOD FOR PREPARING THE SAME” (AVENTIS PHARMACEUTICALS INC., priority 1998, dated 2000).

Legend:
Male Wistar rats = assay: Chronic Mild Stress Model of Depression (CMS), consumption of 1% sucrose solution; type: in vivo
Excerpt: CMS uses mild stressors, such as food and water deprivation, cage tilts, changes of cage mates, etc. Over a period of weeks of exposure to the mild stressors, the animals gradually reduce their consumption of a highly preferred sucrose solution which persists (in untreated animals) for several weeks following the cessation of stress. This decreased sensitivity to reward (the sucrose solution) reflects anhedonia, a symptom of a Major Depressive Episode (see for example, Behavioral Pharmacol. 5: Suppl.1, p. 86 (1994) where lithium, carbamazepine and ketoconazole were evaluated in CMS; Psychopharmacology 93:358-364 (1987) where a tricyclic antidepressant was evaluated in CMS; Behavioral Pharmacology: 5:344-350 (1994) where a catechol-O-methyl transferase inhibitor was evaluated in CMS).
Male Wistar rats were brought into the laboratory two months before the start of the experiment at which time they weighed approximately 300 grams. Except as described below, the animals were singly housed, with food and water freely available, and maintained on a 12 hour light/dark cycle (lights on at 8AM) at a temperature of about 22 °C.
The animals were first trained to consume a 1% sucrose solution; training consisted of eight 1 hour baseline tests in which sucrose was presented, in the home cage, following 14 hours food and water deprivation;- intake was measured by weighing pre-weighed bottles containing the sucrose solution at the end of the test. Subsequently, sucrose consumption was monitored, under similar conditions, at weekly intervals throughout the whole experiment.
On the basis of their sucrose intakes in the final baseline test, the animals were divided into two matched groups. One group of animals was subjected to a chronic mild stress procedure for a period of 9 consecutive weeks. Each week of stress regime consisted of: two periods of food or water deprivation (12 and 14 hour), two periods of 45 degree cage tilt (12 and 14 hour+), two periods of intermittent overnight illumination (lights on and off every 2 hours), two 14 hour periods of soiled cage (200 ml water in sawdust bedding), two 14 hour periods of paired housing, two 14 hour periods of low intensity stroboscopic illumination (150 flashes/min). Stressors were applied continuously throughout the day and night, and scheduled randomly. Control animals were housed in a separate room and had no contract with the stressed animals. They were deprived of food and water for the 14 hours preceding each sucrose test, but otherwise food and water were freely available in the home cage. On the basis of their sucrose intake scores following 3 weeks of stress, both stressed and control animals were each divided further into matched subgroups (n=8), and for subsequent five weeks they received daily administrations of vehicle (1ml/kg, intraperitoneally (ip)) imipramine (10mg/kg, ip) or MDL 100,907 (0.002, 0.02 and 0.2 mg/kg orally). All drug injections were in a volume of 1ml/kg body weight. Drugs were administered at 10AM and sucrose tests were carried out 24 hours following the last drug treatment. After five weeks, the treatments were terminated and after one week of withdrawal a final sucrose test was carried out. Stress was continued throughout the period of treatment and withdrawal.
Results were analyzed by multiple analysis of variance, followed by Fisher's LSD test for post hoc comparisons of means.

myocardial tissue = settings: cited from earlier work
[1] = tested on: A10 vs. A9 neuronal activity; settings: after chronic administration; cited from earlier work
[2] = tested on: MDMA-induced dopamine release in the striatum; settings: in vivo; cited from earlier work
platelets = settings: aggregation as the result of minor alterations in the endothelial lining of the vasculature; cited from earlier work
[3] = tested on: amphetamine-stimulated locomotion; settings: in vivo; cited from earlier work
[4] = tested on: prepulse inhibition and latent inhibition; settings: cited from earlier work

## CN(C)CCCN1c2ccccc2CCc2ccccc21 [Imipramine, reference compound]
Male Wistar rats; imipramine 10mg/kg ip daily, five weeks
  sucrose intake in control animals: no significant effect
Male Wistar rats; imipramine 10mg/kg ip daily, five weeks, stressed animals
  sucrose intake in stressed animals: gradual increase of sucrose intake
Male Wistar rats; imipramine 10mg/kg ip daily, Week 5
  sucrose intake after five weeks of treatment, stressed animals versus controls: no significant differences between drug-treated stressed animals and drug- and saline-treated controls
Male Wistar rats; imipramine 10mg/kg ip daily, stressed animals
  treatment time after which sucrose intake was significantly increased from Week 0 scores: four
Male Wistar rats; imipramine 10mg/kg ip, stressed animals, one week after withdrawal
  increase of sucrose intake one week after withdrawal from the drug: maintained at similar level

## COc1cccc(C(O)C2CCN(CCc3ccc(F)cc3)CC2)c1OC (stereo not drawn) [MDL 100,907, (+)-α-(2,3-dimethoxyphenyl)-1-[2-(4-fluorophenyl)ethyl]-4-piperidinemethanol]
Myocardial tissue
  anti-arrhythmic activity, classification system of Vaughan Williams: Class III anti-arrhythmic activity
  duration of the action potential of myocardial tissue: increases the duration of the action potential
[1]
  A10 vs. A9 neuronal activity: selective effects
Male Wistar rats; 0.002mg/kg orally daily, stressed animals
  sucrose intake throughout the whole treatment period: no significant effect
Male Wistar rats; 0.002mg/kg orally daily, stressed animals, Week 5
  sucrose consumption after five weeks of treatment: did not differ from the intakes of the vehicle-treated stressed animals
Male Wistar rats; 0.02 mg/kg orally daily, stressed animals
  treatment time after which sucrose intakes were significantly increased from initial scores (Week 0): two
Male Wistar rats; 0.02 mg/kg orally daily, stressed animals, Week 5
  amount of sucrose solution drunk at the end of treatment period (Week 5): comparable to that of vehicle-treated controls and significantly higher than that of vehicle-treated stressed animals
Male Wistar rats; 0.2 mg/kg orally daily, stressed animals
  treatment time after which sucrose intakes were significantly increased from initial scores (Week 0): three
Male Wistar rats; 0.2 mg/kg orally daily, stressed animals, Week 5
  amount of sucrose solution drunk at the end of treatment period (Week 5): comparable to that of vehicle-treated controls and significantly higher than that of vehicle-treated stressed animals
Male Wistar rats; 0.002, 0.02 and 0.2 mg/kg, control and stressed animals, one week after withdrawal
  sucrose intakes one week after withdrawal from the treatment: not significantly changed
Male Wistar rats; MDL 100,907 0.002, 0.02 and 0.2 mg/kg orally daily, five weeks
  sucrose intake in control animals: no significant effect
Male Wistar rats; MDL 100,907 0.002, 0.02 and 0.2 mg/kg orally daily, five weeks, stressed animals
  CMS-induced deficit in sucrose intake in stressed animals: gradually reversed the CMS-induced deficit in sucrose intake
[2]
  MDMA-induced dopamine release in the striatum: reduction
platelets
  rate at which platelets aggregate: decreases the rate at which platelets aggregate
[3]
  amphetamine-stimulated locomotion: blockade
[4]; disruption produced by 5HT agonists in Wistar rats
  disrupted PPI (prepulse inhibition): restore disrupted PPI
[4]; rat, in vivo
  5-HT2 agonist-induced deficits in prepulse inhibition and latent inhibition: reversal
